Source: publication PMC6327999, “Hydroxyl-substituted double Schiff-base condensed 4-piperidone/cyclohexanones as potential anticancer agents with biological evaluation” (Journal of Enzyme Inhibition and Medicinal Chemistry, 2019)

test system: human cervical carcinoma cells (HeLa); experiment: Cytotoxicity, MTT assay, HeLa; assay type: cell-based; settings: Homo sapiens, HeLa; MTT, 24 hours
Text: (§1) Compounds 2a–d, 3a–e, 4a–e, 5a–d, and 6a–c were screened against human neoplastic cell lines such as human lung carcinoma cells (A549), human gastric adenocarcinoma cells (SGC7901), human cervical carcinoma cells (HeLa), human liver hepatocellular carcinoma cell line (Hepg2), human chronic myelogenous leukemia cell line (K562), human acute mononuclear granulocyte leukemia (THP-1), human normal heptical cell line (LO2) (Table 1) using modified MTT assay (3-(4,5-dimethyl-2-thiazolyl)-2,5-diphenyl-2-H-tetrazolium bromide, MTT, Dojindo Laboratories, Tokyo, Japan). All cell lines were maintained at 37 °C in a humidified 5% CO2 and 95% air atmosphere. The HePG2 cell lines were cultured in DMEM containing 10% fetal bovine serum. Other cell lines were grown in medium 1640 and supplemented with 10% fetal bovine serum. […] Controls were prepared with 0.1% DMSO (v/v) only. The cells were seeded in a 96-well plate in 200 µL medium per well at a density of 1 × 10^4 cells/well for 24 hours. The cells were treated with serial concentrations of compound and incubated for 24 hours. Cells with only culture media were used as control. After the media was removed, 20 µL of MTT (5 mg/mL) was added then the plates were incubated for 4 hours at 37 °C in cell culture incubator. The MTT containing media were removed and then 150 µL of DMSO was added to dissolve the dark-blue formazan crystals. The optical density (OD) was measured by a multi-well plate reader (TECAN, Männedorf, Switzerland) at 570 nm. The results are expressed as a decrease in the cell viability (%) in comparison to untreated controls. The concentration of each compound was examined in triplicate, and the IC50 values are expressed in Table 1. The concentrations of the compounds were 50, 20, 10, 5, 2.5, 1, 0.5, 0.1, 0.05 and 0.01 µg/mL. Doxorubicin (DOX) and Curcumin were used as positive controls. […] The concentrations of curcumin used were 100, 50, 25, 12.5, 6.25, 3.125, 1, 0.5 and 0.1 µg/mL.

Row | Compound | IC50 [µM]
1 | COc1cc(Br)cc(/C=N/c2cccc(/C=C3\CCC/C(=C\c4cccc(/N=C/c5cc(Br)cc(OC)c5O)c4)C3=O)c2)c1O [3e] | 12.8 ± 0.9
2 | COc1ccc(/C=N/c2ccc(F)c(/C=C3\CNC/C(=C\c4cc(/N=C/c5ccc(OC)cc5O)ccc4F)C3=O)c2)c(O)c1 [5d] | 3.8 ± 0.2
3 | CN1C/C(=C\c2cccc(/N=C/c3cc(Br)ccc3O)c2)C(=O)/C(=C/c2cccc(/N=C/c3cc(Br)ccc3O)c2)C1 [4c] | 4.7 ± 0.1

same assay, conditions: quotient of the IC50 values towards nonmalignant LO2 cells

Row | Compound | HeLa SI
4 | COc1cc(Br)cc(/C=N/c2cccc(/C=C3\CCC/C(=C\c4cccc(/N=C/c5cc(Br)cc(OC)c5O)c4)C3=O)c2)c1O [3e] | 0.9
5 | COc1ccc(/C=N/c2ccc(F)c(/C=C3\CNC/C(=C\c4cc(/N=C/c5ccc(OC)cc5O)ccc4F)C3=O)c2)c(O)c1 [5d] | 3.8
6 | CN1C/C(=C\c2cccc(/N=C/c3cc(Br)ccc3O)c2)C(=O)/C(=C/c2cccc(/N=C/c3cc(Br)ccc3O)c2)C1 [4c] | 2.8

test system: human gastric adenocarcinoma cells (SGC7901); experiment: Cytotoxicity, MTT assay, SGC7901; assay type: cell-based; settings: Homo sapiens, SGC-7901; MTT, 24 hours
Text: as §1

Row | Compound | IC50 [µM]
7 | COc1cc(Br)cc(/C=N/c2cccc(/C=C3\CCC/C(=C\c4cccc(/N=C/c5cc(Br)cc(OC)c5O)c4)C3=O)c2)c1O [3e] | 3 ± 0.8
8 | COc1ccc(/C=N/c2ccc(F)c(/C=C3\CNC/C(=C\c4cc(/N=C/c5ccc(OC)cc5O)ccc4F)C3=O)c2)c(O)c1 [5d] | 1.8 ± 0.1
9 | CN1C/C(=C\c2cccc(/N=C/c3cc(Br)ccc3O)c2)C(=O)/C(=C/c2cccc(/N=C/c3cc(Br)ccc3O)c2)C1 [4c] | 3 ± 0.3

same assay, conditions: quotient of the IC50 values towards nonmalignant LO2 cells

Row | Compound | SGC7901 SI
10 | COc1cc(Br)cc(/C=N/c2cccc(/C=C3\CCC/C(=C\c4cccc(/N=C/c5cc(Br)cc(OC)c5O)c4)C3=O)c2)c1O [3e] | 3.8
11 | COc1ccc(/C=N/c2ccc(F)c(/C=C3\CNC/C(=C\c4cc(/N=C/c5ccc(OC)cc5O)ccc4F)C3=O)c2)c(O)c1 [5d] | 8.3
12 | CN1C/C(=C\c2cccc(/N=C/c3cc(Br)ccc3O)c2)C(=O)/C(=C/c2cccc(/N=C/c3cc(Br)ccc3O)c2)C1 [4c] | 4.3

test system: human lung carcinoma cells (A549); experiment: Cytotoxicity, MTT assay, A549; assay type: cell-based; settings: Homo sapiens, A549; MTT, 24 hours
Text: as §1

Row | Compound | IC50 [µM]
13 | COc1cc(Br)cc(/C=N/c2cccc(/C=C3\CCC/C(=C\c4cccc(/N=C/c5cc(Br)cc(OC)c5O)c4)C3=O)c2)c1O [3e] | 2.5 ± 0.4
14 | COc1ccc(/C=N/c2ccc(F)c(/C=C3\CNC/C(=C\c4cc(/N=C/c5ccc(OC)cc5O)ccc4F)C3=O)c2)c(O)c1 [5d] | 2.5 ± 0.1
15 | CN1C/C(=C\c2cccc(/N=C/c3cc(Br)ccc3O)c2)C(=O)/C(=C/c2cccc(/N=C/c3cc(Br)ccc3O)c2)C1 [4c] | 9 ± 0.8

same assay, conditions: quotient of the IC50 values towards nonmalignant LO2 cells

Row | Compound | A549 SI
16 | COc1cc(Br)cc(/C=N/c2cccc(/C=C3\CCC/C(=C\c4cccc(/N=C/c5cc(Br)cc(OC)c5O)c4)C3=O)c2)c1O [3e] | 4.4
17 | COc1ccc(/C=N/c2ccc(F)c(/C=C3\CNC/C(=C\c4cc(/N=C/c5ccc(OC)cc5O)ccc4F)C3=O)c2)c(O)c1 [5d] | 5.8
18 | CN1C/C(=C\c2cccc(/N=C/c3cc(Br)ccc3O)c2)C(=O)/C(=C/c2cccc(/N=C/c3cc(Br)ccc3O)c2)C1 [4c] | 1.4

test system: human normal heptical cell line (LO2); experiment: Cytotoxicity, MTT assay, non-malignant LO2; assay type: cell-based; settings: 24 hours, non-malignant cells
Text: as §1

Row | Compound | IC50 [µM]
19 | COc1cc(Br)cc(/C=N/c2cccc(/C=C3\CCC/C(=C\c4cccc(/N=C/c5cc(Br)cc(OC)c5O)c4)C3=O)c2)c1O [3e] | 11.3 ± 0.3
20 | COc1ccc(/C=N/c2ccc(F)c(/C=C3\CNC/C(=C\c4cc(/N=C/c5ccc(OC)cc5O)ccc4F)C3=O)c2)c(O)c1 [5d] | 14.6 ± 1.26
21 | CN1C/C(=C\c2cccc(/N=C/c3cc(Br)ccc3O)c2)C(=O)/C(=C/c2cccc(/N=C/c3cc(Br)ccc3O)c2)C1 [4c] | 12.8 ± 0.2

test system: human acute mononuclear granulocyte leukemia (THP-1); experiment: Cytotoxicity, MTT assay, THP-1; assay type: cell-based; settings: Homo sapiens, THP-1; MTT, 24 hours
Text: as §1

Row | Compound | IC50 [µM]
22 | COc1cc(Br)cc(/C=N/c2cccc(/C=C3\CCC/C(=C\c4cccc(/N=C/c5cc(Br)cc(OC)c5O)c4)C3=O)c2)c1O [3e] | 3.3 ± 0.1
23 | COc1ccc(/C=N/c2ccc(F)c(/C=C3\CNC/C(=C\c4cc(/N=C/c5ccc(OC)cc5O)ccc4F)C3=O)c2)c(O)c1 [5d] | 2.1 ± 0.2
24 | CN1C/C(=C\c2cccc(/N=C/c3cc(Br)ccc3O)c2)C(=O)/C(=C/c2cccc(/N=C/c3cc(Br)ccc3O)c2)C1 [4c] | 2.5 ± 0.2

same assay, conditions: quotient of the IC50 values towards nonmalignant LO2 cells

Row | Compound | THP-1 SI
25 | COc1cc(Br)cc(/C=N/c2cccc(/C=C3\CCC/C(=C\c4cccc(/N=C/c5cc(Br)cc(OC)c5O)c4)C3=O)c2)c1O [3e] | 3.4
26 | COc1ccc(/C=N/c2ccc(F)c(/C=C3\CNC/C(=C\c4cc(/N=C/c5ccc(OC)cc5O)ccc4F)C3=O)c2)c(O)c1 [5d] | 6.8
27 | CN1C/C(=C\c2cccc(/N=C/c3cc(Br)ccc3O)c2)C(=O)/C(=C/c2cccc(/N=C/c3cc(Br)ccc3O)c2)C1 [4c] | 5.1

test system: human chronic myelogenous leukemia cell line (K562); experiment: Cytotoxicity, MTT assay, K562; assay type: cell-based; settings: Homo sapiens, K562; MTT, 24 hours
Text: as §1

Row | Compound | IC50 [µM]
28 | COc1cc(Br)cc(/C=N/c2cccc(/C=C3\CCC/C(=C\c4cccc(/N=C/c5cc(Br)cc(OC)c5O)c4)C3=O)c2)c1O [3e] | 4.2 ± 0.1
29 | COc1ccc(/C=N/c2ccc(F)c(/C=C3\CNC/C(=C\c4cc(/N=C/c5ccc(OC)cc5O)ccc4F)C3=O)c2)c(O)c1 [5d] | 1.5 ± 0.1
30 | CN1C/C(=C\c2cccc(/N=C/c3cc(Br)ccc3O)c2)C(=O)/C(=C/c2cccc(/N=C/c3cc(Br)ccc3O)c2)C1 [4c] | 6.2 ± 0.7

same assay, conditions: quotient of the IC50 values towards nonmalignant LO2 cells

Row | Compound | K562 SI
31 | COc1cc(Br)cc(/C=N/c2cccc(/C=C3\CCC/C(=C\c4cccc(/N=C/c5cc(Br)cc(OC)c5O)c4)C3=O)c2)c1O [3e] | 2.7
32 | COc1ccc(/C=N/c2ccc(F)c(/C=C3\CNC/C(=C\c4cc(/N=C/c5ccc(OC)cc5O)ccc4F)C3=O)c2)c(O)c1 [5d] | 9.7
33 | CN1C/C(=C\c2cccc(/N=C/c3cc(Br)ccc3O)c2)C(=O)/C(=C/c2cccc(/N=C/c3cc(Br)ccc3O)c2)C1 [4c] | 2.1

test system: human liver hepatocellular carcinoma cell line (Hepg2); experiment: Cytotoxicity, MTT assay, HePG2; assay type: cell-based; settings: Homo sapiens, HepG2; MTT, 24 hours
Text: as §1, with “µg/mL.” for “µg/mL. Doxorubicin (DOX) and Curcumin were used as positive controls.”

Row | Compound | IC50 [µM]
34 | COc1cc(Br)cc(/C=N/c2cccc(/C=C3\CCC/C(=C\c4cccc(/N=C/c5cc(Br)cc(OC)c5O)c4)C3=O)c2)c1O [3e] | 1.9 ± 0.01
35 | COc1ccc(/C=N/c2ccc(F)c(/C=C3\CNC/C(=C\c4cc(/N=C/c5ccc(OC)cc5O)ccc4F)C3=O)c2)c(O)c1 [5d] | 2.7 ± 0.2
36 | CN1C/C(=C\c2cccc(/N=C/c3cc(Br)ccc3O)c2)C(=O)/C(=C/c2cccc(/N=C/c3cc(Br)ccc3O)c2)C1 [4c] | 3.54 ± 0.1

same assay, conditions: quotient of the IC50 values towards nonmalignant LO2 cells

Row | Compound | HePG2 SI
37 | COc1cc(Br)cc(/C=N/c2cccc(/C=C3\CCC/C(=C\c4cccc(/N=C/c5cc(Br)cc(OC)c5O)c4)C3=O)c2)c1O [3e] | 6.0
38 | COc1ccc(/C=N/c2ccc(F)c(/C=C3\CNC/C(=C\c4cc(/N=C/c5ccc(OC)cc5O)ccc4F)C3=O)c2)c(O)c1 [5d] | 5.6
39 | CN1C/C(=C\c2cccc(/N=C/c3cc(Br)ccc3O)c2)C(=O)/C(=C/c2cccc(/N=C/c3cc(Br)ccc3O)c2)C1 [4c] | 3.6

test system: human carcinoma cell lines A549, SGC7901, HePG2, HeLa, K562, THP-1; experiment: Cytotoxicity, MTT assay, panel of human carcinoma cell lines (average / overall); assay type: cell-based; settings: Homo sapiens; average over the six carcinoma cell lines; read-out: Ave IC50
Text: as §1
The cytotoxicity activities against human carcinoma cell lines A549, SGC7901, HePG2, HeLa, K562, THP-1 and cytotoxicity toward LO2 cell lines were evaluated by MTT method. DOX and curcumin were used as positive control. The selectivity index (SI) is the quotient of the IC50 values towards nonmalignant LO2 cells. […] Especially for 4a–e, 5a–d, and 6a–c, this ratio can reach about 92%.

Row | Compound | IC50 [µM]
40 | COc1cc(Br)cc(/C=N/c2cccc(/C=C3\CCC/C(=C\c4cccc(/N=C/c5cc(Br)cc(OC)c5O)c4)C3=O)c2)c1O [3e] | 4.6
41 | COc1ccc(/C=N/c2ccc(F)c(/C=C3\CNC/C(=C\c4cc(/N=C/c5ccc(OC)cc5O)ccc4F)C3=O)c2)c(O)c1 [5d] | 2.4
42 | CN1C/C(=C\c2cccc(/N=C/c3cc(Br)ccc3O)c2)C(=O)/C(=C/c2cccc(/N=C/c3cc(Br)ccc3O)c2)C1 [4c] | 4.8

same assay, conditions: average over the six carcinoma cell lines

Row | Compound | Ave SI
43 | COc1cc(Br)cc(/C=N/c2cccc(/C=C3\CCC/C(=C\c4cccc(/N=C/c5cc(Br)cc(OC)c5O)c4)C3=O)c2)c1O [3e] | 3.5
44 | COc1ccc(/C=N/c2ccc(F)c(/C=C3\CNC/C(=C\c4cc(/N=C/c5ccc(OC)cc5O)ccc4F)C3=O)c2)c(O)c1 [5d] | 6.7
45 | CN1C/C(=C\c2cccc(/N=C/c3cc(Br)ccc3O)c2)C(=O)/C(=C/c2cccc(/N=C/c3cc(Br)ccc3O)c2)C1 [4c] | 3.2
